These results are taken from US20250042916A1 (ACONCAGUA BIO, INC., priority 2023, published 2025).

A value given as a limit tells only on which side of the number the result lay.

Usually EC50 stands for the concentration that produces a half-maximal response.

In the test the target is human calcitonin receptor (CTR) and RAMP3 (AMY3) in COS-7 cells (Homo sapiens, UniProt O60896+P30988). Nature of the test: Amylin Receptor cAMP Assay I. As to conditions: values marked *: Amylin Receptor cAMP Assay I; COS-7/AMY3 cells; read-out: Amylin Receptor cAMP Stimulation Activity: EC50. It counts as cell-based. The text has this: Amylin Receptor cAMP Assay I
Sequence of human calcitonin receptor (CTR) and RAMP3 (AMY3) in COS-7 cells (P30988 25-474): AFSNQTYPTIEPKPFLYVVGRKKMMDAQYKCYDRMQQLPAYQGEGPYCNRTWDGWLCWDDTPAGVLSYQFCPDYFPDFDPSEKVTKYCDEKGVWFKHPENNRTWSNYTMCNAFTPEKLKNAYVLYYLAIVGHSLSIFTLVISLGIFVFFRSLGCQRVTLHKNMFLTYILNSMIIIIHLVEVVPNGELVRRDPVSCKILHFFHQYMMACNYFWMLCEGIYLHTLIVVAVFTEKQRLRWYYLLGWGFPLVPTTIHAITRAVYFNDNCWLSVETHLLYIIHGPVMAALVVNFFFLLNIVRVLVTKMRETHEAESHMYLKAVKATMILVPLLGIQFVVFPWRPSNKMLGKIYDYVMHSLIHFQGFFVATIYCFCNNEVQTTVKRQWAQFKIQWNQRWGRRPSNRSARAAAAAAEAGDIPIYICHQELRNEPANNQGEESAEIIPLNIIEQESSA
Sequence of human calcitonin receptor (CTR) and RAMP3 (AMY3) in COS-7 cells (O60896 24-148): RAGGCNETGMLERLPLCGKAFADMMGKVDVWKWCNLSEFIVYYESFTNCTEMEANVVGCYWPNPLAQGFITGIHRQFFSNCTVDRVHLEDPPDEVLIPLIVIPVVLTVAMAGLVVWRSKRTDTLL
AMYRs are heterodimers of the class B calcitonin (CT) G-protein-coupled receptor (CTR) and receptor activity-modifying proteins (RAMPs). All three RAMPs can interact with the CTR and form AMY1, AMY2, AMY3 with RAMP1, RAMP2 and RAMP3, respectively. Like other class B1 GPCRs, the CT receptor family is canonically coupled to Gs-mediated cAMP production, and measurement of cAMP accumulation has been the primary assay used to determine peptide selectivity and potency.
To optimize functional activity directed toward Gas coupling, COS-7 cells were stably transfected with human calcitonin receptor (CTR) and RAMP3, simultaneously. 100× concentration of compound working solutions were prepared (Agilent Technologies Bravo) with 4-fold serial dilution in 384-well Echo LDV plate (Labcyte, Cat #LP-0200). 100 nL/well 100× concentration of compound working solutions were moved to 384-well white low volume plate (Greiner, Cat #784075) using Labcyte ECHO550. 1×10^5 cells/mL COS-7/CTR or COS-7/AMY3 (HD Biosciences) cell suspensions prepared with assay buffer [DPBS containing 0.5 mM IBMX (Sigma, Cat #15879) and 0.1% BSA (GENVIEW, Cat #FA016-100 g)], 10 μL cell suspensions were added to each well of previous generated assay plate which already contains 100 nL compound at 100× concentration using ThermoFisher Multidrop Combi (1000 cells/well). Seal the plate and incubate at 37° C. with 5% CO2 for 30 min.
After incubation, the cAMP assay signal was generated using cAMP Hi-range Kit (Cisbio). 5 μL cAMP-d2 working solution was added to each well, followed by 5 μL Anti-cAMP antibody-cryptate working solution which was added to each well using ThermoFisher Multidrop Combi. The samples were then incubated at room temperature for 1 hour protected from light. the fluorescence was read at 665 and 615 nm with Reader PerkinElmer EnVision.
Turning to `Cc1noc(-c2c(CCc3ccc(F)cc3)nc(CC(C)C)c(C(N)=O)c2-c2ccc(C(=O)N[C@@H]3CCc4ccccc43)s2)n1` [Compound 101, N—[(R)-1-indanyl]-5-{5-carbamoyl-2-[2-(p-fluorophenyl)ethyl]-6-isobutyl-3-(3-methyl-1,2,4-oxadiazol-5-yl)-4-pyridyl}-2-thenamide], the EC50 was found to be 84.7 nM.

As for `Cc1noc(-c2c(CCc3ccc(F)cc3)nc(CC(C)C)c(C(N)=O)c2-c2ccc(C(=O)NCc3ccc(F)c(F)c3)s2)n1` [Compound 102, N-(3,4-difluorophenyl)methyl-5-{5-carbamoyl-2-[2-(p-fluorophenyl)ethyl]-6-isobutyl-3-(3-methyl-1,2,4-oxadiazol-5-yl)-4-pyridyl}-2-thenamide], the EC50 was found to be 85.9 nM. In the case of `CC(C)Cc1nc(CCc2ccc(F)cc2)c(-c2nc(C(C)C)no2)c(-c2ccc(C(=O)NCc3ccc(F)c(F)c3)s2)c1C(N)=O` [Compound 103, N-(3,4-difluorophenyl)methyl-5-{5-carbamoyl-2-[2-(p-fluorophenyl)ethyl]-6-isobutyl-3-(3-isopropyl-1,2,4-oxadiazol-5-yl)-4-pyridyl}-2-thenamide], the EC50 worked out at 314 nM. With `Cc1noc(-c2c(CCc3ccc(F)cc3)nc(CC(C)C)c(C(N)=O)c2-c2ccc(-c3cn(Cc4ccc(F)c(F)c4)nn3)s2)n1` [Compound 104, 4-(5-{1-[(3,4-difluorophenyl)methyl]-1H-1,2,3-triazol-4-yl}-2-thienyl)-6-[2-(p-fluorophenyl)ethyl]-2-isobutyl-5-(3-methyl-1,2,4-oxadiazol-5-yl)nicotinamide] the figure was 444 nM; with `CC(C)Cc1nc(CCc2ccc(F)cc2)c(-c2nc(C(F)(F)F)no2)c(-c2ccc(C(=O)NCc3ccc(F)c(F)c3)s2)c1C(N)=O` [Compound 105, N-(3,4-difluorophenyl)methyl-5-{5-carbamoyl-2-[2-(p-fluorophenyl)ethyl]-6-isobutyl-3-[3-(trifluoromethyl)-1,2,4-oxadiazol-5-yl]-4-pyridyl}-2-thenamide], 591 nM.

Take `Cc1nnc(-c2c(CCCC(C)C)nc(CC(C)C)c(C(N)=O)c2-c2ccc(C(=O)NCc3ccc(F)c(F)c3)s2)o1` [Compound 108, 4-(5-((3,4-difluorobenzyl)carbamoyl)thiophen-2-yl)-2-isobutyl-5-(5-methyl-1,3,4-oxadiazol-2-yl)-6-(4-methylpentyl)nicotinamide]: the EC50 amounted to 70.7 nM.

Regarding `Cc1nnc(-c2c(CCC3CCCCC3)nc(CC(C)C)c(C(N)=O)c2-c2ccc(C(=O)NCc3ccc(F)c(F)c3)s2)o1` [Compound 109, 6-(2-cyclohexylethyl)-4-(5-((3,4-difluorobenzyl)carbamoyl)thiophen-2-yl)-2-isobutyl-5-(5-methyl-1,3,4-oxadiazol-2-yl)nicotinamide], the EC50 worked out at 20 nM. Take `Cc1nnc(-c2c(Cc3ccc(F)cc3)nc(CC(C)C)c(C(N)=O)c2-c2ccc(C(=O)NCc3ccc(F)c(F)c3)s2)o1` [Compound 110, 4-(5-((3,4-difluorobenzyl)carbamoyl)thiophen-2-yl)-6-(4-fluorobenzyl)-2-isobutyl-5-(5-methyl-1,3,4-oxadiazol-2-yl)nicotinamide]: the EC50 stood at 74.1 nM. With `Cc1nnc(-c2c(CC(C)C)nc(CC(C)C)c(C(N)=O)c2-c2ccc(C(=O)NCc3ccc(F)c(F)c3)s2)o1` [Compound 111, 4-(5-((3,4-difluorobenzyl)carbamoyl)thiophen-2-yl)-2,6-diisobutyl-5-(5-methyl-1,3,4-oxadiazol-2-yl)nicotinamide] the figure was 650 nM. With `CCc1nc(CC(C)C)c(C(N)=O)c(-c2ccc(C(=O)NCc3ccc(F)c(F)c3)s2)c1-c1nnc(C)o1` [Compound 112, 4-[5-[(3,4-difluorophenyl)methylcarbamoyl]-2-thienyl]-6-ethyl-2-isobutyl-5-(5-methyl-1,3,4-oxadiazol-2-yl)pyridine-3-carboxamide] the figure was over 11400 nM; with `COc1cccc(CNC(=O)c2ccc(-c3c(C(N)=O)c(CC(C)C)nc(CCc4ccc(F)cc4)c3-c3nnc(C)o3)s2)c1` [Compound 113, N-(m-methoxyphenyl)methyl-5-{5-carbamoyl-2-[2-(p-fluorophenyl)ethyl]-6-isobutyl-3-(5-methyl-1,3,4-oxadiazol-2-yl)-4-pyridyl}-2-thenamide], 6.2 nM. The result for `COc1ccc(CNC(=O)c2ccc(-c3c(C(N)=O)c(CC(C)C)nc(CCc4ccc(F)cc4)c3-c3nnc(C)o3)s2)cc1` [Compound 114, N-(p-methoxyphenyl)methyl-5-{5-carbamoyl-2-[2-(p-fluorophenyl)ethyl]-6-isobutyl-3-(5-methyl-1,3,4-oxadiazol-2-yl)-4-pyridyl}-2-thenamide] reads 323 nM; that for `Cc1nnc(-c2c(CCc3ccc(F)cc3)nc(CC(C)C)c(C(N)=O)c2-c2ccc(C(=O)NCc3ccccc3)s2)o1` [Compound 115, N-benzyl-5-{5-carbamoyl-2-[2-(p-fluorophenyl)ethyl]-6-isobutyl-3-(5-methyl-1,3,4-oxadiazol-2-yl)-4-pyridyl}-2-thenamide], 85 nM. For `COc1cc(F)cc(CNC(=O)c2ccc(-c3c(C(N)=O)c(CC(C)C)nc(CCc4ccc(F)cc4)c3-c3nnc(C)o3)s2)c1` [Compound 116, N-[(3-fluoro-5-methoxyphenyl)methyl]-5-{5-carbamoyl-2-[2-(p-fluorophenyl)ethyl]-6-isobutyl-3-(5-methyl-1,3,4-oxadiazol-2-yl)-4-pyridyl}-2-thenamide], the EC50 stood at 13.9 nM.

`COc1cc(CNC(=O)c2ccc(-c3c(C(N)=O)c(CC(C)C)nc(CCc4ccc(F)cc4)c3-c3nnc(C)o3)s2)ccc1F` [Compound 117, N-[(4-fluoro-3-methoxyphenyl)methyl]-5-{5-carbamoyl-2-[2-(p-fluorophenyl)ethyl]-6-isobutyl-3-(5-methyl-1,3,4-oxadiazol-2-yl)-4-pyridyl}-2-thenamide]: the EC50 was 40.2 nM. The result for `Cc1nnc(-c2c(CCc3ccc(F)cc3)nc(CC(C)C)c(C(N)=O)c2-c2ccc(C(=O)N[C@H]3CCc4ccccc43)s2)o1` [Compound 118, (S)-4-(5-((2,3-dihydro-1H-inden-1-yl)carbamoyl)thiophen-2-yl)-6-(4-fluorophenethyl)-2-isobutyl-5-(5-methyl-1,3,4-oxadiazol-2-yl)nicotinamide] reads 211 nM; that for `Cc1nnc(-c2c(CCc3ccc(F)cc3)nc(CC(C)C)c(C(N)=O)c2-c2ccc(C(=O)N[C@@H]3CCc4c(F)cccc43)s2)o1` [Compound 119, (R)-4-(5-((4-fluoro-2,3-dihydro-1H-inden-1-yl)carbamoyl)thiophen-2-yl)-6-(4-fluorophenethyl)-2-isobutyl-5-(5-methyl-1,3,4-oxadiazol-2-yl)nicotinamide], 2.7 nM; that for `Cc1nnc(-c2c(CCc3ccc(F)cc3)nc(CC(C)C)c(C(N)=O)c2-c2ccc(C(=O)N[C@@H]3CCc4cc(F)ccc43)s2)o1` [Compound 120, (R)-4-(5-((5-fluoro-2,3-dihydro-1H-inden-1-yl)carbamoyl)thiophen-2-yl)-6-(4-fluorophenethyl)-2-isobutyl-5-(5-methyl-1,3,4-oxadiazol-2-yl)nicotinamide], 1.7 nM. With `Cc1nnc(-c2c(CCc3ccc(F)cc3)nc(CC(C)C)c(C(N)=O)c2-c2ccc(C(=O)N[C@@H]3CCc4ccc(F)cc43)s2)o1` [Compound 121, (R)-4-(5-((6-fluoro-2,3-dihydro-1H-inden-1-yl)carbamoyl)thiophen-2-yl)-6-(4-fluorophenethyl)-2-isobutyl-5-(5-methyl-1,3,4-oxadiazol-2-yl)nicotinamide], the EC50 amounted to 1 nM. With `Cc1nnc(-c2c(CCc3ccc(F)cc3)nc(CC(C)C)c(C(N)=O)c2-c2ccc(C(=O)N[C@@H]3CCc4ncccc43)s2)o1` [Compound 123, (R)-4-(5-((6,7-dihydro-5H-cyclopenta[b]pyridin-5-yl)carbamoyl)thiophen-2-yl)-6-(4-fluorophenethyl)-2-isobutyl-5-(5-methyl-1,3,4-oxadiazol-2-yl)nicotinamide] the figure was 37.2 nM. Take `Cc1nnc(-c2c(CCc3ccc(F)cc3)nc(CC(C)C)c(C(N)=O)c2-c2ccc(C(=O)N[C@H]3CCc4ncccc43)s2)o1` [Compound 124, (S)-4-(5-((6,7-dihydro-5H-cyclopenta[b]pyridin-5-yl)carbamoyl)thiophen-2-yl)-6-(4-fluorophenethyl)-2-isobutyl-5-(5-methyl-1,3,4-oxadiazol-2-yl)nicotinamide]: the EC50 turned out to be 35.8 nM. As for `Cc1nnc(-c2c(CCc3ccc(F)cc3)nc(CC(C)C)c(C(N)=O)c2-c2ncc(C(=O)NCc3ccc(F)c(F)c3)s2)o1` [Compound 125, N-(3,4-difluorophenyl)methyl-2-{5-carbamoyl-2-[2-(p-fluorophenyl)ethyl]-6-isobutyl-3-(5-methyl-1,3,4-oxadiazol-2-yl)-4-pyridyl}-1,3-thiazole-5-carboxamide], the EC50 amounted to 212 nM.
